# Numbering of substitutions follows the chain as printed.
# What was measured:
# [1] = target: T1, LonP1 C637V (Homo sapiens, UniProt P36776, C637V); assay: Endpoint ATPase assay, LonP1 C637V; type: biochemical
# T1 construct: hexa-histidine (N); made in house; host or cells: Rosetta 2 E. coli
# T1 sequence (P36776 68-959 C637V): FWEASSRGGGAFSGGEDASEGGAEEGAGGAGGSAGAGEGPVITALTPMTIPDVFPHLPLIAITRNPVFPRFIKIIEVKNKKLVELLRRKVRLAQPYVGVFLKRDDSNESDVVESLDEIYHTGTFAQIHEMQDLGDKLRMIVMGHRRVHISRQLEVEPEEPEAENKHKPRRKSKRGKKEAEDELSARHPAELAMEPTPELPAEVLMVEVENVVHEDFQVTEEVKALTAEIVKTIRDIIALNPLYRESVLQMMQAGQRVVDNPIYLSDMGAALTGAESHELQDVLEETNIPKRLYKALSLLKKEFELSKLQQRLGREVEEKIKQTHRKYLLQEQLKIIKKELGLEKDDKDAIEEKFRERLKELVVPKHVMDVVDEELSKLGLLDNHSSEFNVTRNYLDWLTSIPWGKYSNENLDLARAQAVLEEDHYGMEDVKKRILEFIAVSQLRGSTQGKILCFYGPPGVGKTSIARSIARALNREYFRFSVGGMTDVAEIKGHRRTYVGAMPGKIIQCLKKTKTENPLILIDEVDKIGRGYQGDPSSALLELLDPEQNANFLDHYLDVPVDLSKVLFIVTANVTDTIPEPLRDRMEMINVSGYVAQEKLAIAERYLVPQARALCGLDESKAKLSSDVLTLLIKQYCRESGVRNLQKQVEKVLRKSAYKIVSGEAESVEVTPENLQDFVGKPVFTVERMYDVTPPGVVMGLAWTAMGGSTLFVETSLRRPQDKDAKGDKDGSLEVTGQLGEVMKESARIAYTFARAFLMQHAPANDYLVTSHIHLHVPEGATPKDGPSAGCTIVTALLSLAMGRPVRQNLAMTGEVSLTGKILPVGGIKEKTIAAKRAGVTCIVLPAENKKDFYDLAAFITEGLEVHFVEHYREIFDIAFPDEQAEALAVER
# Experimental: (§1) Human mitochondrial LonP1 and mutants lacking the predicted mitochondrial targeting sequence were fused to an N-terminal hexa-histidine affinity tag, expressed in Rosetta 2 E. Coli, and purified using a nickel agarose column as previously described ([72]) and protein concentration and buffer exchange carried out using Amicon Ultra centrifugal filtration. LonP1 mutant constructs were obtained from the PCR-based QuikChange Site-Directed Mutagenesis Kit.
# (§2) ADP-Glo (Promega) assays were performed according to the manufacturer's protocols. Purified wild-type or mutant LonP1 (400 nM monomer), the 26S proteasome (3 nM), or no enzyme controls were preincubated in 96-well plates (60 min, 25 °C) with ten different concentrations of CDDO and its derivatives, TP-82, enoxolone (5 μM) or DMSO vehicle control in buffer (40 mM Tris-HCl (pH 7.5), 20 mM MgCl2, 0.1 mg/ml BSA and 5% DMSO). The 26S and 20S proteasome were also assayed at 0, 0.75, 1.5, 3, 6, and 12 nM in the absence of CDDO derivatives. […] Assay reagents were used to quench further ATPase activity and generate luminescence signals proportional to the concentration of ADP formed. Background (no enzyme control) luminescence values were subtracted, and resultant values were reported as a percentage of the no drug control (100%). […]
# [2] = target: T2, LonP1 C637S (Homo sapiens, UniProt P36776, C637S); assay: Endpoint ATPase assay, LonP1 C637S; type: biochemical
# T2 construct: hexa-histidine (N); made in house; host or cells: Rosetta 2 E. coli
# T2 sequence (P36776 68-959 C637S): T1 sequence (P36776 68-959 C637V) with V570S
# Experimental: as §1, §2
# [3] = end-point ATPase assay, N = 1, read-out: CDDO IC50
smiles,measurement,setting,value
"CC1(C)CC[C@]2(C(=O)O)CC[C@]3(C)[C@H](C(=O)C=C4[C@@]5(C)C=C(C#N)C(=O)C(C)(C)[C@@H]5CC[C@]43C)[C@@H]2C1 [CDDO, 2-cyano-3,12-dioxooleana-1,9(11)-dien-28-oic acid]",Fold increase in inhibition compared with WT,[1],3.8
same,IC50,[1]; [3],3.7 µM
same,Fold increase in inhibition compared with WT,[2],4.7
same,IC50,[2]; [3],3 µM

# Reference: PMC8921294, “Inhibition of mitochondrial LonP1 protease by allosteric blockade of ATP binding and hydrolysis via CDDO and its derivatives” (The Journal of Biological Chemistry, 2022)
